Legend:
[1] = design: species or system human; conditions: model estimate
Procedure: PK and PD modeling were performed to determine the therapeutic dose in AGA. A two-compartment PK model using observed clinical study data was adopted. […] The effective dose for additional clinical studies was estimated using established PK/PD models. All PK/PD modeling and simulations were performed using Phoenix WinNonlin, v.8.3.

[2] = type: in vivo, human; conditions: 1 mg QD oral 28 days, n = 10
Procedure: The study in the present disclosure was conducted in accordance with Therapeutic Goods Administration and Human Research Ethics Committee guidelines. The study was conducted at the Phase 1 Unit of Nucleus Network Pty Ltd in Brisbane, Australia from October 2021 to March 2022. The entire study was conducted in accordance with the provisions of the Declaration of Helsinki and Good Clinical Practice guidelines, and the protocol was registered at www.clinicaltrials.gov (NCT04945226; registration date: Jun. 30, 2021). Healthy men aged 18 to 55 years with a body mass index (BMI) of 18 to 32 kg/m^2 participated in this study. Potential subjects completed a signed informed consent form and were subjected to screening prior to the study. A total of 40 healthy, non-smoking adult men were included in the study across three cohorts (FIG. 1).
Each subject was followed up until day 43. In contrast, cohort 2 was divided into two groups.
Cohort 2 was divided into two groups. […]
The clinical status and vital signs of the subjects were evaluated before and after participation in the study to investigate adverse effects. Hematological parameters such as white blood cell, red blood cell, hemoglobin, hematocrit, and platelet counts were analyzed. Adverse effects (AEs) were recorded in terms of symptoms and signs, duration, intensity, relationship to study drug, action taken, outcome, and seriousness. […]

[3] = clinical; conditions: male, human, in vivo, po
[4] = tested on: DHT; experiment: Phase 1 clinical study: plasma DHT as pharmacodynamic marker; type: in vivo, human
[5] = 1 mg finasteride tablets, previous clinical studies; cited from earlier work
[6] = male, human, in vivo, po, 1 mg

Compound: CC(C)(C)NC(=O)[C@H]1CC[C@H]2[C@@H]3CC[C@H]4NC(=O)C=C[C@]4(C)[C@H]3CC[C@]12C [Finasteride]
- tvCL2 (clearance between central compartment and peripheral compartment) [1]: 18.9 L/h
- tvCL (clearance from central compartment) [1]: 18.4 L/h
- COVID-19 [2]: 0 n (%)
- half-life ([3]; 1 mg, mean elimination half-life (t1/2el)): 6.4 h
- half-life ([3]; in vivo mean half-life): ~6.4 h
- baseline-corrected median DHT values (%) at all time points ([4]; 1 mg oral QD 28 days): −74.04 to 3.58%
- effect on DHT ([4]; all concentrations of IVL3001, oral 1 mg tablets): inhibitory effect
- bioavailability [5]: about 65%
- mean elimination half-life (t1/2el) [6]: 6.9 h
